Reference: patent US10766888B1, “HMOX1 inducers” (Mitobridge Inc., priority 2019, dated 2020)
Entries after “also recorded” stand apart in the source; their conditions may differ.

What was measured:
HMOX1 = HMOX1 mRNA expression in HepG2 cells (Nanostring); assay type: cell-based, human; details: 24 hours treatment, mRNA fold change vs DMSO
Experimental: Example 147. HMOX1 Inducers of the Invention Strongly Increase In Vitro Expression of HMOX1
RNA Isolation and Quantification of Gene Expression
HepG2 cells were seeded at 250 k/well in 12-well tissue culture plates coated with collagen (collagen I, rat tail (thin plate coating); ENZO Life Sciences) for approximately 24 hours. The seeded cells were then treated with dose titration of the compound of Example 17 or dimethyl fumarate (DMF) (a Nrf2 activator; Fisher Scientific) via media change, with biological triplicates performed for each treatment. After approximately 24 hours of treatment, cells were visually inspected to confirm that no toxicity occurred with compound treatment. The treated cells were washed with PBS, aspirated, parafilmed and frozen at −80° C. prior to RNA isolation. RNA was isolated using Machery-Nagel isolation kit (NucleoSpin® RNA: catalog 740955.250) and then quantitated using ThermoFisher Nanodrop.
RNA was diluted for Nanostring gene expression analysis. […]
The relative mRNA levels of the HMOX1 gene in HepG2 cells treated with the compound of Example 17 or DMF were measured according to the methods described above. […]

HbSS Townes sickle mice = assay: F-cells (HbF-containing red blood cells) in HbSS Townes sickle mice; assay type: in vivo
Text: Blood smears were made using heparinized whole blood for F-cells staining. Stained F-cells and total red blood cells were counted on the blood smears in four fields; mean=77 red blood cells/field. F-cells are expressed as a percentage of total red blood cells. Values are means+SD. One-Way ANOVA with Dunnett's Multiple comparison to Vehicle **p≤0.01, ***p≤0.001, ****p≤0.0001
Dosing Scheme of HMOX Inducers to HbSS Townes Sickle Mice
HbSS Townes sickle mice were oral gavaged once daily with Vehicle or the compound of Example 17 listed below for 8 days. To minimize experimental inconsistency, fresh formulation was prepared every day and vortexed prior to drawing test article into syringe for each dosing, and dosing was performed by the same individual throughout the day. The last-day dose was administered by oral gavage 4 hours prior to hemin infusion described below. • 1. […]
F-cells were stained on whole blood smears by the Kleihauer-Betke method using a fetal cell stain kit (Simmler) according to the manufacturer's instructions. F-cells and total erythrocytes were counted in 4 separate microscopic fields at 100× magnification for each mouse. The F-cells were expressed as a percentage of total erythrocytes (i.e., red blood cells). […]

VCAM-1 = assay: Gene expression (VCAM-1) in primary human endothelial cells stimulated with TNFa; assay type: cell-based; details: HPAEC
Experimental: Example 150. Gene Expression in Primary Human Endothelial Cells
Inflammatory conditions in endothelial cells increase expression of adhesion molecules, such as VCAM-1, ICAM-1 and E-selectin through NF-kB signaling. HMOX1−/− endothelial cells show increased expression of VCAM-1 in response to TNF stimulation, as compared to HMOX+/+endothelial cells. See Seldon et al., J Immunol Dec. 1, 2007, 179 (11) 7840-7851.
Primary human pulmonary artery endothelial cells (HPAEC) (Lonza # CC-2530) were seeded in 12-well plates (TrueLine # TR5001) at 200 k cells per well and placed at 37° C. in 5% CO2. 18-24 hr post seeding, cells were treated with the compound of Example 17 via media change. 24 hr post treatment with the compound, cells were treated with 10 ng/mL TNFa (Invitrogen # PHC3015 in H2O) alone or with the compound of Example 17. […] 20 ng cDNA was mixed with water, iQ™ SYBR® Green Supermix (BioRad #170-8886), and 300 nM primer (IDT # NM_001078) for a total 10 ul reaction and loaded into 384-well white qPCR plates and subsequently analyzed using BioRad CFX384. […] To calculate fold change, the ΔCt on a per sample basis was calculated as Ct (Gene of interest)−Ct (Average of reference genes). The ΔΔCt was then calculated as ΔCt (experimental sample)−Average ΔCt (control group). Fold change was calculated as 2^−ΔΔCT.

[1] = PD study: compound concentration in mouse liver; assay type: in vivo, C57BL/6 mice; details: male, C57BL/6, mouse, 50 mg/kg, 50 mpk oral
Experimental: 9-10 week old male C57BL/6 mice were dosed orally with 50 mg/kg of vehicle or compound formulated in 5% w/v tween 80 and 0.5% methyl cellulose. At indicated time points (3 and 6 hours or or 4 and 8 hours post-dosing as shown in the results below), whole blood was collected, animal was sacrificed and liver was collected. Blood samples were transferred to vials containing 4 μL of 10% w/v EDTA, centrifuged at 6000 rpm for 8 in below 10° C. to obtain plasma. Samples were frozen and later processed for HMOX1 protein levels as indicated below: […]

Cn1c(Nc2nc3ccccc3o2)nc2cc(C(=O)NCCOCCO)ccc21 [Example 17, 2-(benzo[d]oxazol-2-ylamino)-N-(2-(2-hydroxyethoxy)ethyl)-1-methyl-1H-benzo[d]imidazole-5-carboxamide]
HMOX1 expression compared with DMF (in words) (HMOX1): much more strongly than DMF
percent F-cells compared with vehicle (in words) (HbSS Townes sickle mice; 10, 25, 50 mg/kg PO once daily for 8 days): significantly increased; also recorded: more than doubled; also recorded: did not appear to be dose responsive; also recorded: increase
percent F-cells (of total red blood cells) (HbSS Townes sickle mice; all doses tested (10, 25, 50 mg/kg PO, 8 days)): 55-70%
TNF-α mediated endothelial cell activation / VCAM-1 expression (in words) (VCAM-1; 24 hr pre-treatment, 10 ng/mL TNFa 4 hours): reduced this TNF-α mediated endothelial cell activation
toxicity by visual inspection of cells (VCAM-1; after 4 hours of TNFa treatment): no toxicity
concentration at 4 h ([1]; 4 hours (Study 702), read-out: Liver Conc uM (4 h)): 11 µM
concentration at 8 h ([1]; 8 hours (Study 702), read-out: Liver Conc uM (8 h)): 4.9 µM
